Results from US7892826B2, “Human cell clones having an endogeneous urotensin II receptor” (Janssen Pharmaceutica N.V., priority 2005, dated 2011).
Bridge positions count the residues as written; N and C are the ends. Square brackets hold non-standard residues; d marks the D form. Peptide text beside a SMILES is read from it. Pen = CC(C)(S)[C@H](N)C(=O)O; Orn = NCCC[C@H](N)C(=O)O

Columns and labels:
[1] = molecular target: T1, endogeneous urotensin II receptor (UT receptor) in 6D9 cells (Homo sapiens, UniProt Q9UKP6); assay: 384-well FLIPR high throughput calcium mobilization assay in 6D9 cells; assay type: cell-based; conditions: 384-format
T1 construct: endogenous in cells; host or cells: 6D9 (ATCC PTA-7749), sub-clone of human rhabdomyosarcoma line SJRH30 (ATCC CRL-2061)
T1 sequence (Q9UKP6 1-389): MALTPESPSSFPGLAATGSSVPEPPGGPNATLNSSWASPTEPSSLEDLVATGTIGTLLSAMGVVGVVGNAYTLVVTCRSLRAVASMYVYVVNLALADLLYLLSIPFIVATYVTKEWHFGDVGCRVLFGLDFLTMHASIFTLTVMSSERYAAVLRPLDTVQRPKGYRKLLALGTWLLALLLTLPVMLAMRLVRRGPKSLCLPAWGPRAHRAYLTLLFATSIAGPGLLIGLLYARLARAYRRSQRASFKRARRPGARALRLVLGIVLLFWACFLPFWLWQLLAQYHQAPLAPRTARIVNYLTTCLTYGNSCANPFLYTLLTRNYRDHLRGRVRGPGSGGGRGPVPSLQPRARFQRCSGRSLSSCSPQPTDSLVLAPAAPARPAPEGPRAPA
Experimental: Calcium mobilization was performed using FLIPR and Calcium 3, a non-wash Ca^2+ dye. Unlike the conventional Ca^2+ dye such as Fluo-3, Fluo-4, and Fura-2/AM, etc., the non-wash Ca^2+ dye was formulated to incorporate extracellular fluorescence quenchers and avoid the need to wash away extracellular Ca^2+ dye after loading the cells with the dye (Monteith and Bird, 2005, supra). Cells were plated into 96 or 384 well plates and were incubated at 37° C. After the incubation, the growth medium was removed and replaced with HBSS (Hanks Balanced salt solution #21-023-CV, Mediatech, Inc, Herndon, Va.) containing Calcium 3 dye with probenecid. […] This Example teaches a high throughput approach using FLIPR on a 384-well format. […] Various factors of the FLIPR assay had been tested to minimize the measure variability.

[2] = molecular target: T1, endogeneous urotensin II receptor (UT receptor) in 6D9 cells; assay: Calcium mobilization assay (FLIPR, Calcium 3 dye) in 6D9 cells; assay type: cell-based; conditions: 10 nM or 30 nM U-II (FIG. 6)
Experimental: Calcium mobilization was performed using FLIPR and Calcium 3, a non-wash Ca^2+ dye. Unlike the conventional Ca^2+ dye such as Fluo-3, Fluo-4, and Fura-2/AM, etc., the non-wash Ca^2+ dye was formulated to incorporate extracellular fluorescence quenchers and avoid the need to wash away extracellular Ca^2+ dye after loading the cells with the dye (Monteith and Bird, 2005, supra).
Cells were plated into 96 or 384 well plates and were incubated at 37° C. After the incubation, the growth medium was removed and replaced with HBSS (Hanks Balanced salt solution #21-023-CV, Mediatech, Inc, Herndon, Va.) containing Calcium 3 dye with probenecid.
In addition, the cells survived in cultures for over 3 months (17 passages) and were still responsive to U-II (FIG. 4).

Structure (SMILES)	Dose dependence of response in HTS calcium mobilization assay [1]	Block of calcium mobilization coupled to U-II stimulation [2]
CC(C)[C@H](NC(=O)[C@@H]1CSSC(C)(C)[C@H](NC(=O)[C@@H](N)CC(=O)O)C(=O)N[C@@H](Cc2ccccc2)C(=O)N[C@H](Cc2c[nH]c3ccccc23)C(=O)N[C@@H](CCCN)C(=O)N[C@@H](Cc2ccc(O)cc2)C(=O)N1)C(=O)O [Urantide] (H-D[Pen]F[dW][Orn]YCV-OH; disulfide 2-7)	dose dependent responses	blocked the calcium mobilization coupled to U-II stimulation
CC(C)[C@H](NC(=O)[C@@H]1CSSC[C@H](NC(=O)[C@H](CC(=O)O)NC(=O)[C@@H]2CCCN2C(=O)[C@@H](NC(=O)[C@@H](N)CCC(=O)O)[C@@H](C)O)C(=O)N[C@@H](Cc2ccccc2)C(=O)N[C@@H](Cc2c[nH]c3ccccc23)C(=O)N[C@@H](CCCCN)C(=O)N[C@@H](Cc2ccc(O)cc2)C(=O)N1)C(=O)O [hU-II, SEQ ID NO: 2, ETPDCFWKYCV]	dose dependent responses	
